Molecules are shown by their SMILES. Marks after values point to notes of the source that are not given here.

Here are results for seven molecules from patent publication US20050043396A1, “5-Benzoylamino-1,3-dioxacyclanes, the method for preparing the same and their use as PKC inhibitor” (priority 2003, published 2005).

The experiment has as its system model of the ear swilling of mice. As to the kind of experiment: Anti-inflammatory activity: xylene-induced ear swelling of mice (recognized PKC inhibitor model). It is filed as in vivo, Male Kunming species mice. How it is done:
Based on the knowledge of cycloacetals as structural types of the PKC inhibitors, the PKC inhibitor model recognized (i.e. model of the ear swilling of mice) was adopted to evaluate the activity of cycloacetals 1-21 as PKC inhibitor.
In the present invention the model of the ear swilling of mice was used to evaluate the anti-inflammatory activity of 5-benzoylamino-1,3-dioxscyclane compounds. The compounds of the present invention were suspended in CMC solution (5%) at the ratio of […], while the positive control was the suspension of aspirin, and CMC solution (5%) at the ratio of […], and the vehicle control was CMC solution (5%). Male Kunming species mice (from Animal Department of Beijing Medical University, grade 2) with weight about 20-25 g, which were randomly divided into treatment group, vehicle control group, and positive control group with 10 mice each group (food deprivation for 8 hours before testing, drinking unlimited) were administered orally once. 30 minutes after the administration, xylene (0.02 ml) was smeared on the left exterior auricular of the mice, and 4 hours later, the mice were killed by dislocation of cervical vertebra. Double circular pinnae were taken from two ears using 9 mm punching bear, and the swelling was determined by the weight variation of the two pinnae.
An adaptation of the method of Gad et al (1986) was employed for sensitization. Mice were allowed to acclimate for a week after arrival in the laboratory, then were screened to remove any from testing which have ears that appear red or swollen. Male Kunming species, 6 to 8 weeks old, about 20-25 g, were shaved and tape stripped at the start of each study. Mice were randomly divided into test group, vehicle control group, and positive control group with 10 mice each one.
[…] The application was allowed to dry before the animal was returned to its cage. Mice were killed 4 hours later, and a 9-mm Keyes cutaneous punch was used to obtain uniform tissue sections for weight variation which indicating the swelling degree. Groups were statistically analyzed using the Wilk-Shapiro test for normality and the paired parametric Student t test with a significance level of p<0.05. Data were expressed as the mean difference plus or minus the standard error.
Each mouse in the vehicle control mice group was administered orally 0.2 ml of carboxymethyl cellulose (0.5%) once a day, while each mouse in the positive control group was administered orally suspension of 0.6 mg of aspirin in 0.2 ml of carboxymethyl cellulose (0.5%) once a day, and each mouse in the test group was administed orally the suspension of 0.6 mg of the compounds of the present invention in 0.2 ml of carboxymethyl cellulose (0.5%) once a day. The applications were repeated for three consecutive days.
Administered with the same manner and dosage.

Where [1] appears, read: administered orally 1 time, 30 mg/kg, n = 10 (Table 2).
[2] abbreviates: oral once a day for 3 consecutive days, Dosage = 30 mg/Kg, n = 10, weight difference of 9 mm ear punches, xylene.
The mark [3] stands for this setting: administered orally 1 time, 21 mg/kg, n = 10 (Table 2).

`CC(=O)Oc1ccccc1C(=O)O` [Aspirin, aspirin, reference compound]: the “Weight variation (X ± SD mg)” value runs as follows: under setting [1], 4.17 ± 1.80^1) mg; under setting [2], 4.26 ± 1.44^1) mg.

Turning to `COC(CC1OCC(NC(=O)c2ccccc2)C(C)O1)OC` (centres unmarked) [Compound 9], the “Weight variation (X ± SD mg)” value by setting is: under setting [1], 3.28 ± 2.06^3,5) mg; under setting [2], 3.97 ± 1.49^1) mg.

With `COC(CC1OCCC(NC(=O)c2ccccc2)CO1)OC` (centres unmarked) [Compound 18], the “Weight variation (X ± SD mg)” value under setting [3] is 4.31 ± 1.75^1) mg.

For the molecule `C[C@@H]1O[C@@H](c2ccc([N+](=O)[O-])cc2)OC[C@H]1NC(=O)c1ccccc1` [Compound 24, (2S,4S,5R)-2-p-nitrophenyl-5-benzoylamino-4-methyl-1,3-dioxane], the “Weight variation (X ± SD mg)” value reads like this: (dosage-effect relationship, 2.3 mg/Kg (Table 3)) 3.21 ± 1.68 mg; (dosage-effect relationship, 7 mg/Kg (Table 3)) 1.81 ± 0.63 mg; (dosage-effect relationship, 30 mg/Kg (Table 3)) 1.43 ± 0.89 mg.

On to `O=CCC1OCC(NC(=O)c2ccccc2)CO1` (centres unmarked) [Compound 38], for which, under setting [1], the “Weight variation (X ± SD mg)” value came out at 5.81 ± 2.46 mg.

As for `CC1OC(CC=O)OCC1NC(=O)c1ccccc1` (centres unmarked) [Compound 39], the “Weight variation (X ± SD mg)” value under setting [1] is given as 4.84 ± 2.30^1) mg.

Turning to `O=CCC1OCCC(NC(=O)c2ccccc2)CO1` (centres unmarked) [Compound 40], the “Weight variation (X ± SD mg)” value under setting [3] is recorded as 3.55 ± 1.69^3,6) mg.
